Molecules are shown by their SMILES.

The values that follow come from US20160220552A1, “FORMULATIONS FOR CGRP RECEPTOR ANTAGONISTS” (MERCK SHARP & DOHME CORP., priority 2013, published 2016).

The conditions of data set [1]: clinical trials; cited from earlier work.
For data set [2] the following is noted: control group; cited from earlier work.
Data set [3] in a line: Permeability of Compound I. Type of data set: in vitro ADME. The note with it: not told.
Data set [4] can be described thus: BCS classification / solubility of Compound I. Format: physicochemical.

As for `NCCCC[C@H](NC(=O)[C@@H](Cc1cc(Br)c(O)c(Br)c1)NC(=O)N1CCC(N2Cc3ccccc3NC2=O)CC1)C(=O)N1CCN(c2ccncc2)CC1` [BIBN4096BS], the “effectiveness in treating migraine” value in data set [1] is “effective in treating acute attacks of migraine”. In data set [2], the “prevention of headache induced by CGRP infusion” value is recorded as “able to prevent headache induced by CGRP infusion”.

`O=C(N[C@@H]1CC[C@@H](c2cccc(F)c2F)CN(CC(F)(F)F)C1=O)N1CCC(n2c(=O)[nH]c3ncccc32)CC1` [telcagepant]: the “effectiveness in treating migraine” value in data set [1] is “shown antimigraine effectiveness”.

What is called Papp is the rate of passage across a membrane or cell layer, normalised by area and donor concentration. The low end stands for slow passage, the high end for fast passage. `C[C@@H]1[C@H](c2ccccc2)C[C@H](NC(=O)c2cnc3c(c2)C[C@@]2(C3)C(=O)Nc3ncccc32)C(=O)N1CC(F)(F)F` [Compound I, (S)—N-((3S,5S,6R)-6-methyl-2-oxo-5-phenyl-1-(2,2,2-trifluoroethyl)piperidine-3-yl)-2′-oxo-1′,2′,5,7-tetrahydrospiro[cyclopenta[b]pyridine-6,3′-pyrrolo[2,3-b]pyridine]-3-carboxamide trihydrate]: the Papp in data set [3] is 16.6 ×10⁻⁶ cm/s. In data set [4], the “BCS Class” value was “BCS Class 4” and the solubility entry was “low solubility”.
